From PubChem BioAssay (NCI) come the findings set out here.

SMILES strings stand for the structures.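 Method: 48-hour compound exposure of cells in 96-well plates, five concentrations, linear interpolation of endpoints. Abbreviation: GI50, concentration required for 50% inhibition of growth. The concentration for full growth arrest is given as TGI.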

Test systems include SK-MEL-28 melanoma; SN12C renal; ACHN renal; SK-MEL-5 melanoma; HT29 colon; NCI-H23 lung; HCT-116 colon; MDA-MB-435.
What all share (assay): NCI tumour cell line growth inhibition, 48 h

As to `Cc1ccc(-c2nc3nc(-c4ccc(Cl)cc4)nc(N4CCCNCC4)c3o2)cc1`, the GI50 was 1.73 µM in the experiment on SK-MEL-28 melanoma; 1.66 µM in the experiment on SN12C renal; 1.71 µM in the experiment on ACHN renal; 1.82 µM with SK-MEL-5 melanoma; 1.93 µM in the experiment on HT29 colon; 1.83 µM in the experiment on NCI-H23 lung. Further, the GI50 in the experiment on HCT-116 colon is 1.53 µM; in the experiment with MDA-MB-435, 1.81 µM. Further, the TGI came to 3.13 µM with SK-MEL-28 melanoma; 3.15 µM with SN12C renal; 3.09 µM in the experiment with ACHN renal; 3.33 µM in the experiment on SK-MEL-5 melanoma; 3.94 µM with HT29 colon; 3.41 µM with NCI-H23 lung. Moreover, the TGI in the experiment on HCT-116 colon is 2.94 µM; with MDA-MB-435, 3.25 µM.
With `CC(=O)O[C@H]1C(=O)[C@@]2(C)[C@H]([C@H](OC(=O)c3ccccc3)[C@]3(O)C[C@H](OC(=O)[C@H](OC(=O)CCC(=O)OC4CCC(S/N=C(N)/N=C(\N)N(C)C)CC4)[C@@H](NC(=O)c4ccccc4)c4ccccc4)C(C)=C1C3(C)C)[C@]1(OC(C)=O)CO[C@@H]1C[C@@H]2O` (stereo partly specified), the GI50 in the experiment with SK-MEL-28 melanoma is 8.57 µM; in the experiment on SN12C renal, 0.0325 µM; in the experiment with ACHN renal, 0.11 µM; in the experiment on SK-MEL-5 melanoma, 0.0176 µM; in the experiment with HT29 colon, under 0.005 µM; in the experiment on NCI-H23 lung it was 0.0166 µM. For the same molecule, in the experiment on HCT-116 colon, the GI50 is under 0.005 µM. The TGI was over 50 µM in the experiment with SK-MEL-28 melanoma; over 50 µM in the experiment with SN12C renal; over 50 µM with ACHN renal; 10.5 µM with SK-MEL-5 melanoma; over 50 µM in the experiment on HT29 colon; over 50 µM in the experiment on NCI-H23 lung. Also, the TGI in the experiment on HCT-116 colon was over 50 µM.
Regarding `Cc1cc(Nc2nc(N3CCOCC3)nc3ccccc23)n[nH]1`, the GI50 was 20.4 µM in the experiment on SK-MEL-28 melanoma; 4.23 µM with SN12C renal; 2.03 µM with ACHN renal; 18.8 µM with SK-MEL-5 melanoma; 5.09 µM with HT29 colon; 3.64 µM in the experiment with HCT-116 colon. Also, in the experiment with MDA-MB-435, the GI50 is 4.03 µM. In addition, the TGI is over 100 µM in the experiment with SK-MEL-28 melanoma; over 100 µM with SN12C renal; 18.5 µM in the experiment with ACHN renal; over 100 µM in the experiment on SK-MEL-5 melanoma; 52.8 µM in the experiment on HT29 colon; 27 µM in the experiment with HCT-116 colon. In the experiment with MDA-MB-435, this molecule registered a TGI of over 100 µM.
With `COc1ccc2c(c1)C(=O)c1c-2c(N2CCN(C(=O)CN(C)C)CC2)nc2ccccc12`, the GI50 with SK-MEL-28 melanoma was 1.29 µM; in the experiment with SN12C renal, 13 µM; in the experiment on ACHN renal, 16 µM; in the experiment with SK-MEL-5 melanoma, 18.2 µM; with HT29 colon, 2.13 µM; with HCT-116 colon it was 11.6 µM. Moreover, in the experiment on MDA-MB-435, the GI50 was 30.2 µM. Moreover, the TGI worked out at 3.16 µM in the experiment on SK-MEL-28 melanoma; 27.9 µM with SN12C renal; 33.2 µM with ACHN renal; 34.6 µM with SK-MEL-5 melanoma; 12.7 µM in the experiment on HT29 colon; 26.3 µM in the experiment with HCT-116 colon. Also, the TGI with MDA-MB-435 worked out at 98 µM.
Turning to `COc1cc(/C=C/C(=O)CC(=O)/C=C/c2ccc(OC(=O)CCNC34CC5CC(CC(C5)C3)C4)c(OC)c2)ccc1OC(=O)CCNC12CC3CC(CC(C3)C1)C2`, the GI50 in the experiment on SK-MEL-28 melanoma is 3.79 µM; in the experiment on SN12C renal, 3.32 µM; in the experiment with ACHN renal, 11 µM; in the experiment with SK-MEL-5 melanoma it was 3.28 µM; in the experiment with HT29 colon, 1.75 µM; in the experiment on HCT-116 colon, 2.37 µM. The GI50 in the experiment on MDA-MB-435 is 2.08 µM. The TGI is 17.2 µM in the experiment on SK-MEL-28 melanoma; 17.8 µM with SN12C renal; 23.6 µM in the experiment with ACHN renal; 12.6 µM in the experiment with SK-MEL-5 melanoma; 3.2 µM in the experiment with HT29 colon; 9.9 µM in the experiment with HCT-116 colon. In addition, the TGI in the experiment with MDA-MB-435 was found to be 6.53 µM.
Turning to `O=C(/C=C/c1ccc2c(c1)OCO2)c1ccccc1`, the GI50 is 19.5 µM with SK-MEL-28 melanoma; 18.6 µM with SN12C renal; 17.5 µM with ACHN renal; 15.6 µM in the experiment on SK-MEL-5 melanoma; 17.4 µM with NCI-H23 lung; 3.74 µM in the experiment on HCT-116 colon. Also, in the experiment on MDA-MB-435, the GI50 is 3.58 µM. Also, the TGI in the experiment on SK-MEL-28 melanoma was 41.4 µM; in the experiment with SN12C renal, 40.6 µM; in the experiment on ACHN renal it was 40.9 µM; in the experiment with SK-MEL-5 melanoma, 29.4 µM; with NCI-H23 lung it was 38.6 µM; in the experiment on HCT-116 colon, 14.1 µM. In addition, the TGI in the experiment on MDA-MB-435 is 19.3 µM.
In the case of `N#C/C(=C\c1ccc(Br)cc1)n1nnc2cc(F)c(F)cc21`, the GI50 was 1.84 µM in the experiment on SK-MEL-28 melanoma; 1.9 µM in the experiment on ACHN renal; 1.76 µM in the experiment with SK-MEL-5 melanoma; 1.85 µM in the experiment with HT29 colon; 1.76 µM in the experiment with NCI-H23 lung; 1.56 µM in the experiment on HCT-116 colon. The GI50 with MDA-MB-435 was 1.38 µM. For the same molecule, the TGI stood at 3.63 µM in the experiment on SK-MEL-28 melanoma; 3.63 µM in the experiment with ACHN renal; 3.17 µM in the experiment on SK-MEL-5 melanoma; 3.62 µM with HT29 colon; 3.44 µM with NCI-H23 lung; 3.44 µM in the experiment with HCT-116 colon. The TGI with MDA-MB-435 came to 3.23 µM.
With `Cc1cccc(Oc2ccc(Nc3ncnc4ccc(NC(=O)CN5CCN(C)CC5)cc34)cc2Cl)c1`, the GI50 in the experiment with SK-MEL-28 melanoma is 1.74 µM; with SN12C renal it was 1.72 µM; in the experiment with ACHN renal, 0.655 µM; in the experiment with SK-MEL-5 melanoma it was 1.64 µM; in the experiment with NCI-H23 lung, 1.74 µM; in the experiment with MDA-MB-435 it was 1.59 µM. In addition, the TGI in the experiment on SK-MEL-28 melanoma was found to be 3.2 µM; in the experiment on SN12C renal, 3.44 µM; with ACHN renal, 1.96 µM; with SK-MEL-5 melanoma, 3.03 µM; in the experiment on NCI-H23 lung it was 3.49 µM; in the experiment on MDA-MB-435 it was 2.99 µM.
For the molecule `COc1cc2c(cc1OCCCCCN1CCN(c3cc(=O)oc4c(C)c(OC)ccc34)CC1)N=C[C@@H]1CCCN1C2=O`, the GI50 in the experiment with SK-MEL-28 melanoma was under 0.0235 µM; with SN12C renal, under 0.01 µM; with ACHN renal, 0.0434 µM; with HT29 colon, under 0.01 µM; in the experiment on NCI-H23 lung, under 0.0122 µM; in the experiment on MDA-MB-435 it was under 0.0112 µM. The TGI in the experiment on SK-MEL-28 melanoma was 0.163 µM; in the experiment with SN12C renal, 0.0699 µM; in the experiment on ACHN renal, 0.256 µM; in the experiment with HT29 colon, 0.0428 µM; in the experiment with NCI-H23 lung it was 0.137 µM; in the experiment with MDA-MB-435, 0.0262 µM.
With `COc1cc(C(=O)O)ccc1NC(=O)[C@@H]1N[C@@H](CC(C)(C)C)[C@](C#N)(c2ccc(Cl)cc2F)[C@H]1c1cccc(Cl)c1F`, the GI50 in the experiment on SK-MEL-28 melanoma is 2.56 µM; in the experiment on SN12C renal it was 4.27 µM; in the experiment with ACHN renal it was 0.0496 µM; in the experiment on HT29 colon, 3.39 µM; in the experiment on NCI-H23 lung, 5.47 µM; with MDA-MB-435 it was 2.82 µM. Further, the TGI was 7.59 µM in the experiment on SK-MEL-28 melanoma; over 41.9 µM in the experiment on SN12C renal; 6.82 µM in the experiment with ACHN renal; 22.2 µM in the experiment on HT29 colon; 19.5 µM in the experiment on NCI-H23 lung; 13.1 µM in the experiment with MDA-MB-435.
